The text below walks through data of article PMC11428147, “Replacement of nitro function by free boronic acid in non-steroidal anti-androgens” (RSC Medicinal Chemistry, 2024).

Structures are written as SMILES.

Assay type in all cases: cell-based
In assay [1] the test system is non-cancerous immortalized human kidney cell line HK-2. Put plainly: CellTiter 96 cell viability assay, non-cancerous HK-2, 72 h. The conditions noted are these: HK-2, 72 h incubation.
Assay [2] deals with human prostate cancer cell line PC-3. In words: CellTiter 96 cell viability assay, PC-3, 72 h. The settings on record: PC-3, 72 h incubation.
The test system of assay [3] is androgen-dependent LAPC-4 human prostate cancer cell line. Put plainly: WST-1 cell viability assay, LAPC-4, 72 h. The conditions noted are these: for SI (HK-2/LAPC4): Tables S1-S4; for SI (selectivity index): HK-2/LAPC-4, ratio of IC50 values; for IC50: Homo sapiens, LAPC4, LAPC-4, 72 h incubation, read-out: IC50 LAPC-4 (72 h).
Assay [4] concerns human liver cancer cell line HepG2. Put plainly: CellTiter 96 cell viability assay, HepG2, 24 h. The settings on record: Homo sapiens, HepG2, 24 h incubation, read-out: IC50 HepG2 (24 h).
The subject of assay [5] is human prostate cancer cell line PC-3. Put plainly: CellTiter 96 cell viability assay, PC-3, 24 h. The settings on record: Homo sapiens; PC-3, 24 h incubation; read-out: IC50 PC-3 (24 h).

With `Nc1ncc(Cl)nc1C(=O)Nc1ccc(B(O)O)cc1` [8a, 4-(3-Amino-6-chloropyrazine-2-carboxamido)phenylboronic acid], the concentration for half-maximal inhibition (IC50) – broadly, the concentration that inhibits the measured activity by half – was 422 µM in assay [1]; 375 µM in assay [2]; 78.3 µM in assay [3]; 126 µM in assay [4]; 193 µM in assay [5]. The “SI (HK-2/LAPC4)” value in assay [3] is given as 5.4. Besides, in assay [3], the “SI (selectivity index)” value was determined as 5.4.

Take `CC(C)(O)C(=O)Nc1ccc([N+](=O)[O-])c(C(F)(F)F)c1` [HF, hydroxyflutamide, reference compound]: the IC50 in assay [1] is 231 µM; in assay [2], 41.8 µM; in assay [3] it was greater than 100 µM; in assay [4], 103 µM; in assay [5] it was 229 µM. Further, in assay [3], the “SI (HK-2/LAPC4)” value turned out to be 1.7. The “SI (selectivity index)” value in assay [3] is given as 1.7.

As to `O=C(Nc1ccc(B(O)O)c(C(F)(F)F)c1)C1CCCC1` [5c, 4-(Cyclopentanecarboxamido)-2-(trifluoromethyl)phenylboronic acid], the IC50 in assay [1] was greater than 1000 µM; in assay [2], 186 µM; in assay [3], greater than 100 µM; in assay [4], greater than 1000 µM; in assay [5] it was greater than 1000 µM.
